The source of these data is US20160045497A1, “COMPLEX PREPARATION INCLUDING VALSARTAN AND ROSUVASTATIN CALCIUM AND MANUFACTURING METHOD THEREFOR” (LG LIFE SCIENCES LTD., priority 2013, published 2016).

Assay [1] has as its system patients with hypertension and hyperlipidemia. As to the kind of experiment: Clinical test of combined vs single administration: change of sitDBP after 8 weeks. It is filed as in vivo, human. As to conditions: valsartan 160 mg and/or rosuvastatin 20 mg. On the procedure: (§1) The following tests were performed for patients with hypertension and hyperlipidemia to evaluate the efficacy and safety of the combined administration of 160 mg of valsartan and 20 mg of rosuvastatin in comparison with single administration of each of them.
(§2) A screening inspection was conducted for the subjects, who were 20- to 80-year-old patients suffering from hypertension and hyperlipidemia, to ascertain whether they met the selection/exclusion criteria, and administration of the drugs for treating hypertension and hyperlipidemia, which the subjects had taken, was stopped. All the patients who passed the screening inspection were subjected to Therapeutic Lifestyle Change (TLC) for 4 to 6 weeks, and their blood pressure and fasting serum lipid level were measured finally in the measurement 2 (0 week) visit. If the measured values were recognized as suitable to the following criteria, the patient was randomly assigned to one group of the four (4) treatment groups. […]
(§3) According to random assignment, each subject was assigned with the same probability to one of a total of four groups consisting of one combined administration group (group 1), two single administration groups (groups 2 and 3) and one placebo group (group 4) as shown in the following table. […] The visit window was±4 days at each visit, and the timing of visit was determined with the standard of 0 week. […]

Assay [2] has the same test system. As to the kind of experiment: Clinical test of combined vs single administration: change of LDL-C after 8 weeks. It is filed as in vivo, human. The note with it: valsartan 160 mg and/or rosuvastatin 20 mg. Here is the method:
as §1, §2, §3

`CC(C)c1nc(N(C)S(C)(=O)=O)nc(-c2ccc(F)cc2)c1/C=C/[C@@H](O)C[C@@H](O)CC(=O)O` [Example R20, rosuvastatin]: the “average amount of change of sitDBP from the baseline (Least Square Mean)” value in assay [1] is −3.64 mmHg. For the same compound, in assay [2], the “average rate of change of LDL-C from the baseline (Least Square Mean)” value is on record as −47.27%.

As to `CCCCC(=O)N(Cc1ccc(-c2ccccc2-c2nnn[nH]2)cc1)[C@H](C(=O)O)C(C)C` [Example V160, valsartan], the “average amount of change of sitDBP from the baseline (Least Square Mean)” value in assay [1] is −7.26 mmHg. Further, the “average rate of change of LDL-C from the baseline (Least Square Mean)” value in assay [2] is listed as −4.52%.
